The record followed here is patent US20220162191A1, “SMALL MOLECULE MODULATORS OF IL-17” (LEO PHARMA A/S, priority 2019, published 2022).

The term EC50 denotes the concentration that produces a half-maximal response.

The target in this test is T1, human IL-17AA (Homo sapiens, UniProt Q16552).
T1 construct: host or cells: HEK (human embryonic kidney) cells
T1 sequence (Q16552 24-155) 1: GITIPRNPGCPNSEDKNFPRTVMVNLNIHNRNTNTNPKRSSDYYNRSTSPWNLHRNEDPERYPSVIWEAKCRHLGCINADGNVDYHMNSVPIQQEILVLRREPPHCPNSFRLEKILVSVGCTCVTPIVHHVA
T1 sequence (Q16552 24-155) 2: T1 sequence (Q16552 24-155) 1
In words: IL-8 release assay in human epithelial keratinocytes adult (HEKa). It counts as cell-based. Conditions: 3 ng/ml human IL-17AA + 10 ng/ml human TNFalpha, 68-72 h, IL-8 by HTRF, read-out: Rel EC50 L-8 release assay. The essentials: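 Adult human keratinocytes in Epilife with HKGS minus hydrocortisone, treated with compound then stimulated with final 3 ng/ml HEK-derived human IL-17AA plus 10 ng/ml TNF-alpha for 68–72 h at 37 °C; TNF-alpha alone defines 100% inhibition. Secreted IL-8 by HTRF; relative IC50 and Emax from four-parameter fits.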
On the technique in general: TR-FRET usually uses a lanthanide donor and a delayed reading to cut background.
Take `CC(C)n1cc(-c2ccc(Cl)c(CC(NC(=O)c3ccnn3C)C(=O)Nc3ccc(-c4nncn4C)cc3)c2)ccc1=O` (stereo not drawn) [Example 62, N-[1-[[2-chloro-5-(1-isopropyl-6-oxo-3-pyridyl)phenyl]methyl]-2-[4-(4-methyl-1,2,4-triazol-3-yl)anilino]-2-oxo-ethyl]-2-methyl-pyrazole-3-carboxamide]: the EC50 is above 1 µM.
Consider `CC(C)n1cc(-c2cccc(C(c3ccccc3)C(NC(=O)c3ccnn3C)C(=O)Nc3ccc(-c4cncn4C)cc3)c2)ccc1=O` (single isomer, unassigned; diastereomer 3) [Example 233, N-[1-[[3-(1-isopropyl-6-oxo 3-pyridyl)phenyl]-phenyl-methyl]-2-[4-(3-methylimidazol-4-yl)anilino] 2-oxo-ethyl]-2-methyl-pyrazole-3-carboxamide (Diastereomer 3)], for which the concentration giving a half-maximal response (EC50) was above 1 µM.
For `Cn1cncc1-c1ccc(NC(=O)[C@H](Cc2cc(-c3ccnc(C(O)C4CC4)c3)ccc2Cl)NC(=O)C2(F)CC2)cc1` (stereo partly drawn) [Example 124, N-[(1S)-1-[[2-chloro-5-[2-[cyclopropyl(hydroxy)methyl]-4-pyridyl]phenyl]methyl]-2-[4-(3-methylimidazol-4-yl)anilino]-2-oxo-ethyl]-1-fluoro-cyclopropanecarboxamide] the value was 0.1 to 1 µM; for `Cc1cnn(C)c1-c1ccc(NC(=O)[C@H](Cc2cc(-c3ccc(=O)n(C(C)C)c3)ccc2Cl)NC(=O)c2cn[nH]c2)cc1` [Example 323, N-[(1S)-1-[[2-chloro-5-(1-isopropyl-6-oxo-3-pyridyl)phenyl]methyl]-2-[4-(2,4-dimethylpyrazol-3-yl)anilino]-2-oxo-ethyl]-1H-pyrazole-4-carboxamide], 0.1 to 1 µM.
The result for `Cc1ncn(C)c1-c1ccc(NC(=O)[C@H](Cc2cc(-c3cnn(C(C)(C)C#N)c3)ccc2Cl)NC(=O)c2ccnn2C)cc1` [Example 204, N-[(1S)-1-[[2-chloro-5-[1-(1-cyano-1-methyl-ethyl)pyrazol-4-yl]phenyl]methyl]-2-[4-(3,5-dimethylimidazol-4-yl)anilino]-2-oxo-ethyl]-2-methyl-pyrazole-3-carboxamide] reads 0.1 to 1 µM.
For `Cc1n[nH]c(C)c1-c1ccc(NC(=O)[C@H](Cc2cc(-c3ccnc(N4CC[S+]([O-])CC4)n3)ccc2Cl)NC(=O)C2(F)CC2)cc1` [Example 315, N-[(1S)-1-[[2-chloro-5-[2-(1-oxidothiomorpholin-1-ium-4-yl)pyrimidin-4-yl]phenyl]methyl]-2-[4-(3,5-dimethyl-1H-pyrazol-4-yl)anilino]-2-oxo-ethyl]-1-fluoro-cyclopropanecarboxamide] the value was below 0.1 µM; for `CC(C)N(C)c1cc(-c2ccc(Cl)c(CC(NC(=O)c3ccnn3C)C(=O)Nc3ccc(-c4cncn4C)cc3)c2)ccn1` (stereo not drawn) [Example 159, N-[1-[[2-chloro-5-[2-[isopropyl(methyl)amino]-4-pyridyl]phenyl]methyl]-2-[4-(3-methylimidazol-4-yl)anilino]-2-oxo-ethyl]-2-methyl-pyrazole-3-carboxamide], below 0.1 µM; for `CCc1cc(-c2ccc(Cl)c(CC(NC(=O)c3ccnn3C)C(=O)Nc3ccc(-c4nncn4C)cc3)c2)ccc1C#N` (stereo not drawn) [Example 198, N-[1-[[2-chloro-5-(4-cyano-3-ethyl-phenyl)phenyl]methyl]-2-[4-(4-methyl-1,2,4-triazol-3-yl)anilino]-2-oxo-ethyl]-2-methyl-pyrazole-3-carboxamide], above 1 µM.
For the molecule `Cc1cc(-c2ccc(Cl)c(CC(NC(=O)c3ccnn3C)C(=O)Nc3ccc(-c4nncn4C)cc3)c2)cc(C)c1C#N` (stereo not drawn) [Example 199, N-[1-[[2-chloro-5-(4-cyano-3,5-dimethyl-phenyl)phenyl]methyl]-2-[4-(4-methyl-1,2,4-triazol-3-yl)anilino]-2-oxo-ethyl]-2-methyl-pyrazole-3-carboxamide], the concentration giving a half-maximal response (EC50) lay in the range of 0.1 to 1 µM.
